Experimental data published in patent US6022857A, “Radiolabeled compounds for thrombus imaging” (Diatide, Inc., priority 1998, dated 2000).
Where “and” joins values, the source holds several entries; their conditions need not be identical. Identical values can stand only once. Like-named read-outs stand apart in the source and are kept apart here. Where no end group is shown, it is not given here. The star is where a group is joined. Acm = CC(=O)NC*

How the values were obtained:
femoral vein thrombus [1] = assay: Canine model of DVT: thrombus uptake and imaging of Tc-99m labeled reagent; assay type: in vivo; settings: approximately 4 h postinjection
Procedure: *ratio of (% injected dose/g in a femoral vein thrombus)/(% injected
dose/g in blood) at approximately 4 h postinjection of each Tc99 m labele
reagent in a canine model of DVT

[2] = tested on: human platelets in platelet-rich plasma; assay: Platelet aggregation inhibition assay (ADP-induced, platelet-rich plasma); assay type: cell-based
Procedure: Platelet aggregation studies were performed essentially as described by Zucker (1989, Methods in Enzymol. 169: 117-133). Briefly, platelet aggregation was assayed with or without putative platelet aggregation inhibitory compounds using fresh human platelet-rich plasma, comprising 300,000 platelets per microliter. Platelet aggregation was induced by the addition of a solution of adenosine diphosphate to a final concentration of 10 to 15 micromolar, and the extent of platelet aggregation monitored using a Bio/Data aggregometer (Bio/Data Corp., Horsham, Pa.). The concentrations of platelet aggregation inhibitory compounds used were varied from 0.1 to 500 μg/mL. The concentration of inhibitor that reduced the extent of platelet aggregation by 50% (defined as the IC50) was determined from plots of inhibitor concentration versus extent of platelet aggregation. An inhibition curve for peptide RGDS was determined for each batch of platelets tested.
**concentration of reagent that inhibits by 50% the aggregation of human
platelets in plateletrich plasma induced to aggregate by the addition of
adenosine diphosphate (ADP)

deep-vein thrombi = assay: Pilot human clinical study: scintigraphic imaging of deep-vein thrombi; assay type: in vivo; settings: Tc-99m labeled
Procedure: A series of experiments comprising a pilot human clinical study of one embodiment of the scintigraphic imaging agents of the invention, designated P280, having the chemical structure:
were performed. These experiments were performed on 9 human patients (6 males, 3 females), ages 30 to 60 years and weighing 63 to 100 kg. Each of the patients presented clinically with the symptoms of deep-vein thrombosis, and the diagnosis was confirmed by physical work-up, ultrasonography and/or contrast venography.
Each patient in the study was administered 10-22 mCi Tc-99m labeled P280 comprising approximately 0.25 mg peptide, by intravenous injection. Scintigraphic imaging was then performed over four hours using a large field-of-view gamma camera equipped with a high-resolution collimator (photopeaked at 140 keV, with a 20%±window). Gamma camera imaging was commenced simultaneously with injection. Anterior images followed by posterior images over the legs were acquired over the first hour, then at 2 and 4 hours post-injection.

femoral vein thrombus [3] = assay: Canine model of DVT: thrombus uptake and imaging of Tc-99m labeled reagent; settings: in vivo canine model system
[4] = human platelet-rich plasma, aggregation induced by ADP, read-out: IC50 (concentration of reagent that inhibits by 50% the aggregation of human platelets)

Row | Substance | Clot/Blood: ratio of (% injected dose/g in a femoral vein thrombus)/(% injected dose/g in blood) (femoral vein thrombus [1]) | IC50 [2, 4] | further results
1 | (CH2 CO--YD ApcGDCGGCAcm GCAcm GGC-amide)2 -(BAT-BS) [Peptide P357] | 6.3 ± 3.4 | 79 nM | –
2 | (CH2 CO--YD ApcGDCGGCAcm GCAcm GGC-amide)3 -TSEA [Peptide P317] | 3.8 ± 2.2 | 36 nM | –
3 | (CH2 CO--YD ApcGDCKGCAcm GCAcm GGC-amide)2 -BSME [Peptide P381] | 2.5 | 35 nM | –
4 | GRGDVRGDFKCAcm GCAcm amide (SEQ ID NO: 3) (GRGDVRGDFKC(Acm)GC(Acm)-NH2; N-terminus assumed; SMILES CC(=O)NCSC[C@H](NC(=O)CNC(=O)[C@H](CSCNC(C)=O)NC(=O)[C@H](CCCCN)NC(=O)[C@H](Cc1ccccc1)NC(=O)[C@H](CC(=O)O)NC(=O)CNC(=O)[C@H](CCCNC(=N)N)NC(=O)[C@@H](NC(=O)[C@H](CC(=O)O)NC(=O)CNC(=O)[C@H](CCCNC(=N)N)NC(=O)CN)C(C)C)C(N)=O) [Peptide P97] | 1.0 | 8000 nM | –
5 | CH2 CO--YD RGDCGGCAcm GCAcm amide [Peptide P143] | 1.4 | 1300 nM | –
6 | CH2 CO--YD RGDCCAcm GCAcm amide [Peptide P81] | 1.8 ± 0.6 | 25000 nM | –
7 | (CH2 COYD.Apc.GDCGGCAcm GCAcm GGCamide)2 (CH2 CO)2 K(Nε-K)GCamide [Peptide P667] | 5.9 and 5.0 | 81 nM | –
8 | CH2 CO--YD ApcGDCGGGCAm GCAcm amide [Peptide P154] | 2.0 ± 0.5 | 300 nM | –
9 | (CH2 CO.YD ApcGDCGGCAcm GCAcm GGC.amide)2 -BSME [Peptide P280] | – | – | patients in whom thrombi were visualized (deep-vein thrombi; 9 patients with confirmed DVT): 8 of the 9; toxicity or other adverse effects (deep-vein thrombi; 10-22 mCi, approximately 0.25 mg peptide i.v., human patients): no toxicity or other adverse effects; time after injection at which thrombus visualization was evident (deep-vein thrombi; human patients with DVT): 15 to 30 min; time post-injection for which thrombus remained visible (deep-vein thrombi; human patients with DVT): 4 to 24 h; scintigraphic images of deep-vein thrombi (deep-vein thrombi; humans in vivo): excellent scintigraphic images; injected dose remaining in the circulation (deep-vein thrombi; intravenous, 1 hour post-injection, human patients): less than 10%; injected dose cleared by the kidneys (deep-vein thrombi; intravenous, human patients): 60-70%; IC50 ([2]; unlabeled reagent, read-out: IC50, platelet aggregation inhibition): 87 nM; scintigraphic images of venous thrombi (femoral vein thrombus [3]): excellent scintigraphic images
10 | GRDGVRGDFCAcm GCAcm amide(SEQ ID NO: 8) (GRDGVRGDFC(Acm)GC(Acm)-NH2; N-terminus assumed; SMILES CC(=O)NCSC[C@H](NC(=O)CNC(=O)[C@H](CSCNC(C)=O)NC(=O)[C@H](Cc1ccccc1)NC(=O)[C@H](CC(=O)O)NC(=O)CNC(=O)[C@H](CCCNC(=N)N)NC(=O)[C@@H](NC(=O)CNC(=O)[C@H](CC(=O)O)NC(=O)[C@H](CCCNC(=N)N)NC(=O)CN)C(C)C)C(N)=O) [Peptide P98] | 1.7 | 15000 nM | –
11 | CH2 CO--YD ApcGDCGGCAcm GCAcm GGC-amide [Peptide P246] | 4.4 ± 1.8 | 850 nM | –
12 | CAcm GCAcm RRRRRRRRRGDV (SEQ ID NO: 5) (C(Acm)GC(Acm)RRRRRRRRRGDV) [Peptide P32] | 1.2 ± 0.2 | 26000 nM | –
13 | AcSYGRGDVRGDFKCTCCA (SEQ ID NO: 7) (Ac-SYGRGDVRGDFKCTCCA; cysteine pairing not given here) [Peptide P63] | 1.7 | 19000 nM | –
14 | AcSYGRGDVRGDFKCAcm GCAcm (SEQ ID NO: 6) (Ac-SYGRGDVRGDFKC(Acm)GC(Acm)) [Peptide P47] | 1.0 | 23000 nM | –
